The values that follow come from US20120252729A1, “PTH-CONTAINING THERAPEUTIC/PROPHYLACTIC AGENT FOR OSTEOPOROSIS, CHARACTERIZED IN THAT PTH IS ADMINISTERED ONCE A WEEK IN A UNIT DOSE OF 100 TO 200 UNITS” (ASAHI KASEI PHARMA CORPORATION, priority 2009, published 2012).

Data set [1] has as its system patients having prednisone-induced osteoporosis complicated by arthralgia. The conditions noted are these: daily administration; cited from earlier work.
For data set [2], the system named is nausea and vomiting associated with administration of the test drug. As to the kind of experiment: Working Example 2: prescriptions for nausea and vomiting associated with administration of the test drug. As to conditions: given before test drug.
From the text: The administration period and efficacy of various drugs to treat nausea and vomiting associated with administration of the test drug were studied.
For data set [3] the following is noted: PTH 20 μg/day; blood samples 4 to 6 hours after administration; cited from earlier work.

For `CC[C@H](C)[C@H](NC(=O)[C@H](CCC(=O)O)NC(=O)[C@H](CO)NC(=O)[C@@H](NC(=O)[C@@H](N)CO)C(C)C)C(=O)N[C@@H](CCC(N)=O)C(=O)N[C@@H](CC(C)C)C(=O)N[C@@H](CCSC)C(=O)N[C@@H](Cc1cnc[nH]1)C(=O)N[C@@H](CC(N)=O)C(=O)N[C@@H](CC(C)C)C(=O)NCC(=O)N[C@@H](CCCCN)C(=O)N[C@@H](Cc1cnc[nH]1)C(=O)N[C@@H](CC(C)C)C(=O)N[C@@H](CC(N)=O)C(=O)N[C@@H](CO)C(=O)N[C@@H](CCSC)C(=O)N[C@@H](CCC(=O)O)C(=O)N[C@@H](CCCN=C(N)N)C(=O)N[C@H](C(=O)N[C@@H](CCC(=O)O)C(=O)N[C@@H](Cc1c[nH]c2ccccc12)C(=O)N[C@@H](CC(C)C)C(=O)N[C@@H](CCCN=C(N)N)C(=O)N[C@@H](CCCCN)C(=O)N[C@@H](CCCCN)C(=O)N[C@@H](CC(C)C)C(=O)N[C@@H](CCC(N)=O)C(=O)N[C@@H](CC(=O)O)C(=O)N[C@H](C(=O)N[C@@H](Cc1cnc[nH]1)C(=O)N[C@@H](CC(N)=O)C(=O)N[C@@H](Cc1ccccc1)C(=O)O)C(C)C)C(C)C` [Forteo, teriparatide (rDNA origin)], in data set [1], the “Bone strengthening effect compared with Fosamax” value was “stronger bone strengthening effect than Fosamax”.
Take `O=c1[nH]c2ccccc2n1CCCN1CCC(n2c(=O)[nH]c3cc(Cl)ccc32)CC1` [Nauzelin, domperidone]: the Effective or ineffective entry in data set [2] (event: nausea) and in data set [2] (event: vomiting) was “Effective” throughout.
With “PTH: PTH (parathyroid hormone) preparation given daily (20 μg/day) in cited osteoporosis trials”, in data set [3], the Patients with hypercalcemia is 11% and the “Patients with persistent hypercalcemia” value is 3%.
